This passage reports EC50 results from patent publication US20080119412A1, “Polypeptides for Modulating Binding of Trp Channel Proteins and Trp- Associated Proteins” (NoNO Inc., priority 2003, published 2008).

Molecules are shown by their SMILES. Residues, ends and D or L forms follow the SMILES beside them. *: point of attachment. Biotin = O=C1N[C@H]2[C@H](CS[C@H]2CCCCC(=O)*)N1

Common to all, as to test: G3 assay titration, GST-PDZ fusion / biotinylated peptide
Holding throughout (type): binding

One experiment deals with T1, KIAA1284 d1 (Homo sapiens, UniProt Q9ULD6).
T1 construct: made in house; host or cells: E. coli (DH5alpha, BL21 or JM109)
T1 sequence (Q9ULD6 159-271): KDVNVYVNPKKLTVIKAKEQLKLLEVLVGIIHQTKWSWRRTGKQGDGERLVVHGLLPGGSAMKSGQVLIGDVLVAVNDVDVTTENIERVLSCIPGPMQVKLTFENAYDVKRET
On the procedure: (§1) The G3 assay is identical to the G0 assay with the following exceptions. The peptides are typically present at 0.1 μM rather than 20 μM. The peptides are also pre-incubated with the HRP-streptavidin prior to adding to the assay plate. In the G0 assay, free peptide is incubated with the PDZ proteins prior to the addition of the HRP-streptavidin. Thus, for the G0 assay one can lose signal if the bound peptide dissociates from the PDZ protein prior to the addition of the HRP-streptavidin. In the G3 modified assay the HRP-streptavidin/peptide complex is added to the plate in one step, thus increasing the likelihood that all the bound peptide will be bound to HRP-streptavidin. The G3 modified assay increases the chance of observing weak interactions.
(§2) This example describes assays to identify binding between TRPM7 and PDZ domains. GST-PDZ fusions are produced that each contain an entire PDZ domain (or multiple PDZ domains), the collection encompassing approximately 90% of all PDZ domains identified in the human genome. (See Table 5 and Section V (PDZ Proteins and PL Protein Interactions Disclosure). Biotinylated peptide corresponding to 11 residues of Tat coupled to the C-terminal 9 amino acids of TRPM7 ([…]; SEQ ID NO:258) is synthesized and purified by HPLC.
(§3) • Nunc MaxiSorp 96 well Immuno-plate, Nunc • PBS pH 7.4 (phosphate buffered saline, 8 g NaCl, 0.29 g KCl, 1.44 g Na2HPO4, 0.24 g KH2PO4, add H2O to 1 liter and pH 7.4; 0.2 μm filter) • Assay Buffer: 2% BSA in PBS (20 g of bovine serum albumin per liter PBS, fraction V, ICN Biomedicals, cat#IC15142983 • Goat anti-GST polyclonal Ab, stock 5 mg/ml, stored at 4° C., Amersham Pharmacia cat#27-4577-01 • Dilute 1:1000 in PBS, final concentration 5 μg/ml. • HRP-Streptavidin, 2.5 mg/2 ml stock stored at 4° C., Zymed cat#43-4323, dilute 1:2000 into Assay buffer, final concentration of […] • Wash Buffer, PBS • Biotinylated peptides (HPLC purified, stock solution stored in −20° C. freezer) • GST-PRISM proteins (stock stored at −80° C., after 1st thaw store in −10° C. freezer) • TMB (3,3′,5,5′, teramethylbensidine), tablets, Sigma cat.#T5525 • Per plate, dissolve 1 tablet in 1 ml DMSO, add 9 ml Citrate/Phosphate buffer pH 5.4 and 2 μL H2O2 • 0.1 M H2SO4, Sigma cat.#S1526 • 12-w multichannel pipettor & tips • 50 ml reagent reservoirs, Costar#4870 • 50, 15 ml polypropylene conical tubes • Costar Transtar 96 Costar #7605 • Transtar 96 Cartridge Costar #7610 • Molecular Devices microplate reader (450 & 650 nm filters) with SoftMax Pro software *When using reagents stored at or 4° C. or −20° C., remove & keep on ice
(§4) • 1. Coat plate with 100 μl of 5 μg/ml anti-GST, overnight at 4° C. • 2. Dump contents of plate & out tap dry on paper towels • 3. Block with 200 μl Assay Buffer for 2 hrs at room temperature • 4. Prepare proteins at 5 μg/ml in Assay Buffer • 5. Wash 3× with cold PBS (4° C.), avoiding letting the plates dry out • 6. Add proteins at 50 μl per well, incubate 1 to 2 hrs at 4° C. • 7. Prepare peptides to desired concentration in Assay Buffer • 8. Wash 3× with cold PBS (4° C.), avoiding letting the plates dry out • 9. Add HRP-Streptavidin/peptide complex [prepared by incubating for 20 minutes at room temperature HRP-Streptavidin (1:2000) with the desired biotin-peptide concentration for 20 minutes at room temperature] at 50 μl per well on ice • 10. Place at room temperature for exactly 30 minutes • 11. Promptly wash 5× with PBS at room temperature • 12. Add 100 μl/well TMB substrate (write time on plate) • 13. Incubate in dark at room temperature for a maximum of 30 minutes • 14. Read plate at 25 minutes (650 nm), optional • 15. Stop reaction with 100 μl of 0.18 M H2SO4, 30 minutes after adding TMB • Take last reading at 450 nm soon after stopping reaction
(§5) The G3 assay was performed on a subset of the PDZ domains as in Example II except that the concentration of peptide was 0.002 μM, […], 0.1 μM, 0.2 μM, 1 μM, and 2 μM. Data was fitted to the equation: […]

Another experiment concerns the target T2, MUPP1 d3 (Homo sapiens, UniProt O75970).
T2 construct: made in house; host or cells: E. coli (DH5alpha, BL21 or JM109)
T2 sequence (O75970 with tags, fused parts or gaps): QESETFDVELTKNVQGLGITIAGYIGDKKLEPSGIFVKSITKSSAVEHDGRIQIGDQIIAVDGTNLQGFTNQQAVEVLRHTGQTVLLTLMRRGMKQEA
On the procedure:
as §1, §2, §3, §4, §5

The target in a further experiment is T3, Mint1 d2 (Homo sapiens, UniProt Q02410).
T3 construct: made in house; host or cells: E. coli (DH5alpha, BL21 or JM109)
T3 sequence (Q02410 with tags, fused parts or gaps): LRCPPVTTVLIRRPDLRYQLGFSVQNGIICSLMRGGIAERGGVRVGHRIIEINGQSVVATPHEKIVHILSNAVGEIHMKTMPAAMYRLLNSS
On the procedure: as §1, §2, §3, §4, §5

The next experiment addresses T4, SITAC-18 d1 (Homo sapiens, UniProt Q9H190).
T4 construct: made in house; host or cells: E. coli (DH5alpha, BL21 or JM109)
T4 sequence (Q9H190 104-195): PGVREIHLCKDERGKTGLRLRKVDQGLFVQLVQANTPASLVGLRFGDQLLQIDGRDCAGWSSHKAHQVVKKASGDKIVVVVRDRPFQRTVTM
On the procedure:
as §1, §2, §3, §4, §5

Another experiment concerns the target T5, TIP1 d1 (Homo sapiens, UniProt O14907).
T5 construct: made in house; host or cells: E. coli (DH5alpha, BL21 or JM109)
T5 sequence (O14907 14-116): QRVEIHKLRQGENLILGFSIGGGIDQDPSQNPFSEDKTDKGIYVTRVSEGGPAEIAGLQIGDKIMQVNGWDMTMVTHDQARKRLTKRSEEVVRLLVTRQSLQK
How it is done:
as §1, §2, §3, §4, §5

The target of a further experiment is T6, MAST2 d1 (Homo sapiens, UniProt Q6P0Q8).
T6 construct: made in house; host or cells: E. coli (DH5alpha, BL21 or JM109)
T6 sequence (Q6P0Q8 with tags, fused parts or gaps): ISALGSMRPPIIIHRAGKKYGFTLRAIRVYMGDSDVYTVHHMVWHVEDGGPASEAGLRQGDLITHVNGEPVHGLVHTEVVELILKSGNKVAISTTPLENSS

Take `CSCC[C@H](NC(=O)[C@H](CC(C)C)NC(=O)[C@H](CCCNC(=N)N)NC(=O)[C@@H](NC(=O)[C@H](CO)NC(=O)[C@H](CC(N)=O)NC(=O)[C@@H](NC(=O)[C@H](CO)NC(=O)[C@H](CCCNC(=N)N)NC(=O)[C@H](CCCNC(=N)N)NC(=O)[C@H](CCCNC(=N)N)NC(=O)[C@H](CCC(N)=O)NC(=O)[C@H](CCCNC(=N)N)NC(=O)[C@H](CCCNC(=N)N)NC(=O)[C@H](CCCCN)NC(=O)[C@H](CCCCN)NC(=O)[C@H](CCCNC(=N)N)NC(=O)CNC(=O)[C@H](Cc1ccc(O)cc1)NC(=O)CCCC[C@@H]1SC[C@@H]2NC(=O)N[C@@H]21)[C@@H](C)O)C(C)C)C(=O)N[C@@H](CC(C)C)C(=O)O` [Tat-TRPM7 peptide] (Biotin-YGRKKRRQRRRSTNSVRLML-OH): the EC50 on KIAA1284 d1 was above 2000 nM; on MUPP1 d3, 290 nM; on Mint1 d2 it was below 2000 nM; on SITAC-18 d1, below 1000 nM; on TIP1 d1, below 1000 nM; on MAST2 d1 it was 110 nM.

What is called EC50 is the concentration that produces a half-maximal response. Low readings indicate a more potent agent, high ones a less potent agent.
